According to ChEMBL document CHEMBL1201862, “PubChem BioAssay data set” (2004):
Structures can show the parent of a compound that is named as a salt.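 Briefly, cells in 96-well plates were exposed to five compound concentrations for 48 h, and endpoints were estimated by linear interpolation. GI50 = concentration required for 50% inhibition of growth.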 Calls of active or inactive are those of the source. Rule as the data show it: active = GI50 up to about 1.1 µM and inactive = higher.

Legend:
Experiment in all cases: inhibition of tumour cell growth, NCI panel, 48 h
HCC 2998 = system: HCC 2998
TK-10 = system: TK-10
MDA-MB-231 = system: MDA-MB-231
SF-268 = system: SF-268
UACC-62 = system: UACC-62
M19-MEL = system: M19-MEL
DLD-1 = system: DLD-1
NCI/ADR-RES = system: NCI/ADR-RES
HL-60 = system: HL-60
SK-MEL-2 = system: SK-MEL-2
SF-295 = system: SF-295
PC-3 = system: PC-3
MCF7 = system: MCF7
T47D = system: T47D
NCI-H23 = system: NCI-H23
SNB-75 = system: SNB-75
OVCAR-8 = system: OVCAR-8
786-0 = system: 786-0
DMS-114 = system: DMS-114
UACC-257 = system: UACC-257
SF-539 = system: SF-539
DMS-273 = system: DMS-273
SK-OV-3 = system: SK-OV-3
U-251 = system: U-251
SNB-78 = system: SNB-78
A549 = system: A549
HCT-116 = system: HCT-116
RXF 393 = system: RXF 393
Hs-578T = system: Hs-578T
RPMI-8226 = system: RPMI-8226
K562 = system: K562
OVCAR-4 = system: OVCAR-4
BT-549 = system: BT-549
HT-29 = system: HT-29
XF498 = system: XF498
A498 = system: A498
NCI-H522 = system: NCI-H522
EKVX = system: EKVX
SN12C = system: SN12C
MOLT-4 = system: MOLT-4
IGROV-1 = system: IGROV-1
ACHN = system: ACHN
LOX IMVI = system: LOX IMVI
OVCAR-5 = system: OVCAR-5
CAKI-1 = system: CAKI-1
SR = system: SR
KM-20L2 = system: KM-20L2
Malme-3M = system: Malme-3M
SK-MEL-5 = system: SK-MEL-5
COLO 205 = system: COLO 205
HOP-62 = system: HOP-62
NCI-H460 = system: NCI-H460
M14 = system: M14
HOP-18 = system: HOP-18

N=c1ccn2c(n1)O[C@H]1[C@H](O)[C@@H](CO)O[C@H]12 [ANCITABINE HYDROCHLORIDE]
GI50 (HCC 2998): 33.7 µM (inactive) | GI50 (TK-10): > 1000 µM (inactive) | GI50 (MDA-MB-231): 31.7 µM (inactive) | GI50 (SF-268): 7.05 µM (inactive) | GI50 (UACC-62): 2.24 µM (inactive) | GI50 (M19-MEL): 7.21 µM (inactive) | GI50 (DLD-1): 652 µM (inactive) | GI50 (NCI/ADR-RES): 2.35 µM (inactive) | GI50 (HL-60): 0.346 µM (active) | GI50 (SK-MEL-2): 411 µM (inactive) | GI50 (SF-295): 25.2 µM (inactive) | GI50 (PC-3): 2.79 µM (inactive) | GI50 (MCF7): 0.522 µM (active) | GI50 (T47D): 213 µM (inactive) | GI50 (NCI-H23): 0.406 µM (active) | GI50 (SNB-75): 532 µM (inactive) | GI50 (OVCAR-8): 0.658 µM (active) | GI50 (786-0): 0.57 µM (active) | GI50 (DMS-114): 0.406 µM (active) | GI50 (UACC-257): 78.7 µM (inactive) | GI50 (SF-539): 44.1 µM (inactive) | GI50 (DMS-273): 2.34 µM (inactive) | GI50 (SK-OV-3): 66.1 µM (inactive) | GI50 (U-251): 15.1 µM (inactive) | GI50 (SNB-78): 242 µM (inactive) | GI50 (A549): 0.198 µM (active) | GI50 (HCT-116): 0.282 µM (active) | GI50 (RXF 393): 79.8 µM (inactive) | GI50 (Hs-578T): > 1000 µM (inactive) | GI50 (RPMI-8226): 141 µM (inactive) | GI50 (K562): 8.85 µM (inactive) | GI50 (OVCAR-4): > 1000 µM (inactive) | GI50 (BT-549): > 1000 µM (inactive) | GI50 (HT-29): 135 µM (inactive) | GI50 (XF498): > 647 µM (inactive) | GI50 (A498): 13.6 µM (inactive) | GI50 (NCI-H522): 47.4 µM (inactive) | GI50 (EKVX): 62.1 µM (inactive) | GI50 (SN12C): 1.91 µM (inactive) | GI50 (MOLT-4): 0.207 µM (active) | GI50 (IGROV-1): 151 µM (inactive) | GI50 (ACHN): 0.291 µM (active) | GI50 (LOX IMVI): 0.347 µM (active) | GI50 (OVCAR-5): 24.7 µM (inactive) | GI50 (CAKI-1): 1.66 µM (inactive) | GI50 (SR): 0.183 µM (active) | GI50 (KM-20L2): > 562 µM (inactive) | GI50 (Malme-3M): 3.03 µM (inactive) | GI50 (SK-MEL-5): 9.23 µM (inactive) | GI50 (COLO 205): 154 µM (inactive) | GI50 (HOP-62): 0.292 µM (active) | GI50 (NCI-H460): 0.154 µM (active) | GI50 (M14): 0.253 µM (active) | GI50 (HOP-18): 11.2 µM (inactive)
